In PubChem BioAssay AID1996:
≈ marks a conversion by molar mass, not a printed value.

details: buffer; pH 7.4; 200.0 µM

Structure (SMILES)	solubility kinetic [µg/mL]
CC(NC(=O)c1ccccc1Cl)C(=O)OCc1cn2cc(Cl)ccc2n1 (centres undefined)	> 58.8
CN(CC(=O)Nc1ccc(Cl)c(C(F)(F)F)c1)C(=O)COC(=O)C1CC2CCCC(C1)C2=O (centres undefined)	59.2 (≈ 121 µM)
Cc1ccc(-n2c(=O)[nH]c3c(C(N)=O)nc(C(C)C)nc32)cc1	9.4 (≈ 30.2 µM)
CC1(C)CC(=O)C=C(Nc2cccc(Cl)c2Cl)C1	37.3 (≈ 131 µM)
CCc1ccc(C(=O)Nc2ccc(C)c(NS(C)(=O)=O)c2)cc1	39.7 (≈ 119 µM)
Cc1ccc(NC(=O)NC(=O)CN2CCC(C(N)=O)CC2)c(C)c1	> 49.9
CCc1noc(C)c1C(=O)Nc1ccc(F)c(F)c1F	> 42.6
CC(C)(CO)NCc1c(OCc2ccc(Cl)cc2)ccc2ccccc12.Cl	57.1
CN(Cc1ccccc1)C(=O)c1ccccc1C(=O)OCC(=O)N(Cc1ccccc1)C(C)(C)C	25.7 (≈ 54.4 µM)
CC(C)N(Cc1ccccc1)S(=O)(=O)c1cccs1	13 (≈ 44 µM)
CC(C)NC(=O)CC1(C(=O)NCc2ccc(Cl)cc2)CCCC1	> 50.5
O=C(CCC(=O)NC1CCCCC1)NCc1ccc(F)cc1	> 46
COc1ccc(CN(C#N)c2nc(C)cc(C)n2)cc1	38.5 (≈ 143 µM)
COc1cccc(NC(=O)c2ccccc2-c2ccccc2C(=O)O)c1	51.9 (≈ 149 µM)
CC(C)N1CCN(Cc2cccc3nonc23)CC1CCO (centres undefined)	42.2 (≈ 139 µM)
CNC(=O)c1ccccc1Sc1cccc2cccc(C(=O)O)c12	> 50.6
Cc1nnc(SCC(=O)Nc2ccc(S(N)(=O)=O)cc2)n(N)c1=O	> 55.6
COc1ccc(Cl)cc1NCCC(O)c1ccc(F)cc1 (centres undefined)	24.7 (≈ 79.7 µM)
CCOCCCNC(=O)C1CCN(S(=O)(=O)N2CCCC2)CC1	> 52.1
COC(=O)C1=C(C)N(c2ccc(OC)cc2)C(C)=C(C(=O)OC)C1c1ccccc1	1 (≈ 2.45 µM)

Structure (SMILES)	solubility kinetic [µg/mL]
O=S1(=O)CC2SC(=S)N(c3ccccc3)C2C1 (centres undefined)	1.3 (≈ 4.55 µM)
CCOCCCNC(=O)/C(C#N)=C/c1ccc(C)o1	35.4 (≈ 135 µM)
O=C(O)c1cc(-c2ccccc2)n(-c2ccc(F)cc2)n1	> 42.3
COc1ccc(NC(=O)Cn2c([N+](=O)[O-])cnc2C)cc1Cl	2 (≈ 6.16 µM)
CC(C)(C)c1ccccc1NC(=O)C1=COCCO1	> 39.2
COc1ccc(NC(=O)c2ccc3c(c2)OCCO3)cc1OC	10.3 (≈ 32.7 µM)
COc1nc(C)nc(NC(=O)NS(=O)(=O)c2ccccc2Cl)n1	> 53.7
COCC(C)NC(=O)c1ccc2c(c1)S(=O)(=O)c1ccccc1C2=O (centres undefined)	> 53.9
COc1ccc([N+](=O)[O-])c(OC)c1C(=O)NC(=O)Nc1nc(C)cc(C)n1	43.6 (≈ 116 µM)
COC(=O)c1cc(Sc2c(Cl)cccc2Cl)ccn1	37 (≈ 118 µM)
O=C(COC(=O)c1ccc(F)c(S(=O)(=O)N2CCOCC2)c1)NCc1ccc2c(c1)OCO2	53.8 (≈ 112 µM)
CCc1ccc(C(=O)COC(=O)CNC(=O)Cc2ccccc2)cc1	36.6 (≈ 108 µM)
CC(=O)NNC(=O)c1[nH]c2ccc(Br)cc2c1-c1ccccc1	> 55.8
O=C(CCC(=O)N1CCCC1)N1CCCC1	> 33.6
Cn1c(=O)n(C)c2cc(NC(=O)Cc3ccccc3[N+](=O)[O-])ccc21	47.6 (≈ 140 µM)
NC(=NC1CCCCC1)NS(=O)(=O)c1ccccc1	> 42.2
COc1ccc(NC(=O)C#Cc2ccccc2)cc1OC	37.6 (≈ 134 µM)
O=C1OC(Nc2ccc3ncccc3c2)c2ccccc21 (centres undefined)	4.3 (≈ 15.6 µM)
O=C(NCCCc1nc2ccccc2[nH]1)c1ccc(F)cc1	> 44.6
O=C(COC(=O)c1ccc(Br)c(S(=O)(=O)N2CCOCC2)c1)NCCc1ccccc1	24.1 (≈ 47.1 µM)

Structure (SMILES)	solubility kinetic [µg/mL]
COc1ccccc1CNC(=O)c1nccnc1CO	> 41
Cc1ccc(SCC(=O)NC(=O)c2ccccc2Br)c(C)c1	> 56.7
CN(c1ccccc1C(=O)Nc1ccc2ccccc2c1)S(C)(=O)=O	48.6 (≈ 137 µM)
CC(C)n1c(=S)[nH]c2cc(Cl)ccc21	11 (≈ 48.5 µM)
COC(=O)C1C(c2ccccc2)NC(=O)NC1(O)C(F)(F)Cl (centres undefined)	> 50.2
Cn1cc(CCC(=O)NCc2ccc(Cl)cc2)c2ccccc21	2.2 (≈ 6.73 µM)
O=C(c1ccccc1)C1CCN(C(=O)Nc2ccccc2)CC1	41.2 (≈ 134 µM)
OC(CCN1CCCCC1)c1ccc(-c2ccccc2)cc1 (centres undefined)	> 44.3
CC1(C(=O)OCC(=O)Nc2ccc(S(=O)(=O)N3CCOCC3)cc2)CC1(Cl)Cl (centres undefined)	60.5 (≈ 134 µM)
COc1ccc(S(=O)(=O)N2CCN(C)CC2)c(C)c1	> 42.7
Cc1ccccc1-c1nnc(SCC(=O)NC2CCS(=O)(=O)C2)n1C (centres undefined)	> 57.1
O=C(CCCOc1ccc(Cl)cc1Cl)Nc1ncccn1	7.7 (≈ 23.6 µM)
N#Cc1ccccc1NC(=O)COC(=O)CN1C(=O)C2CCCCC2C1=O (centres undefined)	> 55.4
Nc1cccc(C(=O)O)c1	> 20.6
O=C(NCCN1CCCCC1)c1ccc(/C=N/O)nc1	40.7 (≈ 147 µM)
NC(=O)NC(CC(=O)N1CCc2ccccc2C1)c1ccc(Cl)cc1 (centres undefined)	49.9 (≈ 139 µM)
CN(Cc1c(F)cccc1Cl)S(=O)(=O)c1cccs1	< 0.7
CCOC(=O)c1ccc(NC(=S)N2CCN(CCO)CC2)cc1	> 50.6
COc1ccccc1N1CCN(C(=O)c2ccc(Br)o2)CC1	> 54.8
